In patent publication US20250057910A1, “Application of Polypeptide in Preparation of Product for Preventing or Treating Skin Injury Diseases” (Sichuan Gooddoctor Panxi Pharmaceutical Co., Ltd., priority 2021, published 2025):
Ends that are not written are not given here.

Assays:
[1] = test system: Wild-type AB-line zebrafish; assay: Tissue regeneration in zebrafish with caudal fin damage; type: in vivo; settings: 250, 500 and 1000 μg/mL in water, 28° C., 3 days; vs model control; FIG. 5
Description: Experimental animals: Wild-type AB-line zebrafish, raised in water for culturing fish at 28° C. (water quality: 200 mg of instant dissolving sea salt being added to every 1 L of water made by reverse osmosis, with a conductivity of 450-550 μS/cm, a pH of 6.5-8.5 and a hardness of 50-100 mg/L CaCO3), at the age of 3 days post fertilization (3 dpf). The animals were provided by the fish breeding center of Hangzhou Hunter Biotechnology Co., Ltd. with the experimental animal use license number of SYXK (Zhejiang) 2012-0171, and the breeding management complied with the requirements of international AAALAC certification (certification number: 001458).
Experimental method: 3 dpf wild AB-line zebrafish were randomly selected, and the caudal fins of zebrafish was excised to establish a model of caudal fin damage in zebrafish. […] Treatment was performed at 28° C. for 3 days, 10 zebrafish were randomly selected in each experimental group and placed under an anatomical microscope to take photos, the data were analyzed and collected using NIS-Elements D 3.20 advanced image processing software, the regeneration areas of caudal fins of zebrafish were analyzed, and the statistical analysis results of this index were used to evaluate the efficacy of the samples of promoting tissue regeneration.

[2] = test system: STZ-induced diabetic rats; assay: Healing of skin ulcer in streptozotocin (STZ)-induced diabetic rats; type: in vivo, rat; settings: for Wound healing rates of diabetic rats: Mean ± SD, n = 15
Description: Experimental animals: After SPF grade male healthy SD rats (weighing 180-200 g) were fed with high-fat and high-sugar diet for 2 weeks and fasted for 6 hours, each rat was rapidly injected with an STZ solution (50 mg kg^−1) intraperitoneally at one time, and 48 hours later, the random blood glucose values were >16.7 mmol/L twice, indicating the successful establishment of type II diabetic rat model. Experimental animals were purchased from Beijing Vital River Laboratory Animal Technology Co., Ltd., with the experimental animal quality certification number of SCXK (Beijing) 2017-0033, and the experimental animal use license number of SCXK (Beijing) 2017-0033.
Experimental method: 90 diabetic rats were selected and randomly divided into 6 groups with 15 rats in each group, namely, model control group (normal saline), high-dose polypeptide group (30 μg/cm^2), medium-dose polypeptide group (10 μg/cm^2), and low-dose polypeptide group (3 μg/cm^2), GeneTime group (40 IU/cm^2, recombinant human epidermal growth factor topical solution, from Shenzhen Watsin Genetech Ltd.), and Kangfuxin Ye group (36 μL/cm^2, Kangfuxinye, from SICHUAN GOODDOCTOR PANXI PHARMACEUTICAL CO., LTD.). After each experimental rat was anesthetized by intraperitoneal injection of 2% pentobarbital sodium (0.2 mL/100 g), a 2 cm^2 full-layer skin defect wound was prepared at each of both sides of the back spine, and a rubber ring with a diameter of 2.3 cm was stitched at the outer edge of the wound. After hemostasis of the wound, local drug therapy at the wound was carried out by group. Except that the Kangfuxin Ye group was administered 2 times/day, other groups were administered once a day, with a dosed volume of 72 μL/wound each time, for 14 consecutive days. After the administration, the wound was covered with a sterile vaseline gauze (5 cm*5 cm), and bandaged with multi-layer sterile gauzes. After the wound surgery, the wound was photographed, and the wound area was recorded as the baseline value (the wound was recorded as Day0). During the administration period, the wound areas were photographed and measured 3 times a week, and the granulation tissue growth and healing of wound in each group were observed every day.

db/db mice = assay: Healing of skin ulcers (full-thickness back wound) in db/db mice; type: in vivo, mouse; settings: for Wound healing rate: db/db mice, topical, polypeptide 30 μg/cm^2 qd, GeneTime 40 IU/cm^2 qd, Kangfuxin Ye 40 μL/mouse Bid, Mean ± SD, n = 10
Description: Experimental animals: Diabetic model mice (db/db male mice), normal mice (m/m male mice), SPF grade, 8-10 weeks of age, weighting 40-50 g, from Changzhou Cavens Experimental Animal Co., Ltd., with the experimental animal production license number of SCXK (Su) 2016-0010, and the experimental animal use license number of SYXK (Shanghai) 2020-0038.
Experimental method: After the blood glucose of the db/db mice reached the standard (blood glucose after fasting for 4 h>16.7 mmol/L), the mice were randomly divided into 5 groups with 10 mice in each group, namely, normal control group, model control group, Kangfuxin Ye group (40 μL per mouse), GeneTime group (40 IU/cm^2), the subject polypeptide group (30 μg/cm^2). After the mice were anesthetized with isoflurane inhalation, a circular wound with a diameter of about 12 mm was cut on the back of the mice with a cutter from the full layers of the skin to reach the fascia layer. The wound was photographed and the wound area was recorded as the baseline value (the wound was recorded as Day0). From the next day (Day 1), the animals in each group were administered as required, and all the skin wounds were applied externally. Both the normal control group and the model control group were given 40 μL of normal saline, and the GeneTime group (40 IU/cm^2) was given Recombinant human epidermal growth factor topical solution diluted in 40 μL of normal saline (Shenzhen Watsin Genetech Ltd.), and the subject polypeptide group (30 μg/cm^2) was given the corresponding concentration of the polypeptide prepared by using 40 μL normal saline, once a day; the Kangfuxin Ye group was given 40 μL of Kangfuxin Ye (SICHUAN GOODDOCTOR PANXI PHARMACEUTICAL CO., LTD.), twice a day. Administration was continued every day until the wound was basically healed. The skin wounds were measured and photographed twice a week, the areas of the wounds were calculated with the Image-J software, and the healing of the wounds in each group of animals was observed.

PAAEPVPL [polypeptide]
Zebrafish caudal fin regeneration (regeneration area) [1]: significantly promoting tissue regeneration
Formation rate of new granulation tissues ([2]; 3rd day after injury, low-, medium- and high-dose (3, 10, 30 μg/cm^2), vs model control, FIG. 8): promoted the growth rate of new granulation tissue compared to the model control group with significant differences
Wound healing rates of diabetic rats ([2]; Day 0 (baseline), high-dose 30 μg/cm^2, topical once a day): 0.00 ± 0.00%
Wound healing rates of diabetic rats ([2]; Day 0 (baseline), low-dose 3 μg/cm^2, topical once a day): 0.00 ± 0.00%
Wound healing rates of diabetic rats ([2]; Day 0 (baseline), medium-dose 10 μg/cm^2, topical once a day): 0.00 ± 0.00%
Wound healing rates of diabetic rats ([2]; Day 3, high-dose 30 μg/cm^2, topical once a day): 6.82 ± 19.81%
Wound healing rates of diabetic rats ([2]; Day 3, low-dose 3 μg/cm^2, topical once a day): 3.05 ± 8.10%
Wound healing rates of diabetic rats ([2]; Day 3, medium-dose 10 μg/cm^2, topical once a day): 5.04 ± 9.31%
Wound healing rates of diabetic rats ([2]; Day 7, high-dose 30 μg/cm^2, topical once a day): 62.62 ± 12.24%
Wound healing rates of diabetic rats ([2]; Day 7, low-dose 3 μg/cm^2, topical once a day): 54.67 ± 18.10%
Wound healing rates of diabetic rats ([2]; Day 7, medium-dose 10 μg/cm^2, topical once a day): 57.57 ± 10.49%
Wound healing rates of diabetic rats ([2]; Day 10, high-dose 30 μg/cm^2, topical once a day): 88.49 ± 5.17 %
Wound healing rates of diabetic rats ([2]; Day 10, low-dose 3 μg/cm^2, topical once a day): 84.05 ± 10.21%
Wound healing rates of diabetic rats ([2]; Day 10, medium-dose 10 μg/cm^2, topical once a day): 84.26 ± 9.10%
Wound healing rates of diabetic rats ([2]; Day 12, high-dose 30 μg/cm^2, topical once a day): 98.39 ± 2.39%
Wound healing rates of diabetic rats ([2]; Day 12, low-dose 3 μg/cm^2, topical once a day): 95.92 ± 5.82%
Wound healing rates of diabetic rats ([2]; Day 12, medium-dose 10 μg/cm^2, topical once a day): 97.77 ± 3.71%
Wound healing rates of diabetic rats ([2]; Day 14, high-dose 30 μg/cm^2, topical once a day): 99.85 ± 0.77%
Wound healing rates of diabetic rats ([2]; Day 14, low-dose 3 μg/cm^2, topical once a day): 99.46 ± 1.46%
Wound healing rates of diabetic rats ([2]; Day 14, medium-dose 10 μg/cm^2, topical once a day): 99.85 ± 0.84%
Wound healing in diabetic rats (statement in words) ([2]; high-dose 30 μg/cm^2, vs model control, Day 10): significant healing promoting effect
Wound healing in diabetic rats (statement in words) ([2]; low and medium doses (3 and 10 μg/cm^2), Day 10, vs model control): tendency to promote the wound healing
Wound healing rate (db/db mice; Day 0 (baseline)): 0.00 ± 0.00%
Wound healing rate (db/db mice; Day 3): −4.66 ± 17.55%
Wound healing rate (db/db mice; Day 7): 13.06 ± 17.65%
Wound healing rate (db/db mice; Day 10): 40.91 ± 16.33%
Wound healing rate (db/db mice; Day 14): 89.44 ± 8.99 %
Skin wound healing in diabetic mice (statement in words) (db/db mice; day 14, 30 μg/cm^2 qd, vs model control): significantly promote skin wound healing
